Experimental data: ChEMBL document CHEMBL4190295, “One-pot three steps cascade synthesis of novel isoandrographolide analogues and their cytotoxic activity” (Eur J Med Chem, 2017)

Columns and labels:
Assay type in all cases: functional, cell-based
KB = test: Cytotoxicity against human KB cells assessed as reduction in cell viability by SRB assay
[1] = Cytotoxicity against rat ASK cells assessed as reduction in cell viability by SRB assay
MCF7 = test: Cytotoxicity against human MCF7 cells assessed as reduction in cell viability by SRB assay
A549 = test: Cytotoxicity against human A549 cells assessed as reduction in cell viability by SRB assay
HT-29 = test: Cytotoxicity against human HT-29 cells assessed as reduction in cell viability by SRB assay
P388 = test: Cytotoxicity against mouse P388 cells assessed as reduction in cell viability by SRB assay

Row | Compound | IC50 (KB) [µM] | IC50 [1] [µM] | IC50 (MCF7) [µM] | IC50 (A549) [µM] | IC50 (HT-29) [µM] | IC50 (P388) [µM]
1 | Cc1c2ccncc2c(C)c2c1[nH]c1ccccc12 [ELLIPTECINE] | 1.87 | 2.17 | 1.53 | 1.2 | 2.06 | 1.34
2 | CC(=O)O[C@@H]1CC[C@]2(C)[C@H](CC[C@]3(CNc4ccc(Br)cc4)O[C@H](C4=CCOC4=O)C[C@H]32)[C@]1(C)CO[Si](C(C)C)(C(C)C)C(C)C | > 50 | 29.7 | > 50 | > 50 | > 50 | 40.5
3 | CC(=O)O[C@@H]1CC[C@]2(C)[C@H](CC[C@]3(CNc4ccc(Br)cc4)O[C@H](C4=CCOC4=O)C[C@H]32)[C@]1(C)CO[Si](C)(C)C(C)(C)C | 25.7 | 7.35 | 12.9 | 15 | 27.7 | 6.39
4 | CC(=O)O[C@@H]1CC[C@]2(C)[C@H](CC[C@]3(CNc4ccccc4)O[C@H](C4=CCOC4=O)C[C@H]32)[C@]1(C)COC(c1ccccc1)(c1ccccc1)c1ccccc1 | > 50 | 29.1 | > 50 | > 50 | > 50 | > 50
5 | COc1ccc(NC[C@]23CC[C@@H]4[C@](C)(COC(C)=O)[C@H](OC(C)=O)CC[C@@]4(C)[C@@H]2C[C@@H](C2=CCOC2=O)O3)cc1OC | > 50 | > 50 | > 50 | > 50 | 24.1 | 28.8
6 | CC(=O)O[C@@H]1CC[C@]2(C)[C@H](CC[C@]3(CNc4ccccc4)O[C@H](C4=CCOC4=O)C[C@H]32)[C@]1(C)CO[Si](c1ccccc1)(c1ccccc1)C(C)(C)C | > 50 | 9.32 | > 50 | > 50 | > 50 | 45.3
7 | COc1ccc(NC[C@]23CC[C@@H]4[C@](C)(CO[Si](c5ccccc5)(c5ccccc5)C(C)(C)C)[C@H](OC(C)=O)CC[C@@]4(C)[C@@H]2C[C@@H](C2=CCOC2=O)O3)cc1OC | > 50 | 9.37 | 35.8 | 48.6 | > 50 | 27.5
8 | COc1ccc(NC[C@]23CC[C@@H]4[C@](C)(CO[Si](C(C)C)(C(C)C)C(C)C)[C@H](OC(C)=O)CC[C@@]4(C)[C@@H]2C[C@@H](C2=CCOC2=O)O3)cc1OC | 17.9 | 4.61 | 4.7 | 6.08 | 5.24 | 4.98
9 | COc1ccc(NC[C@]23CC[C@@H]4[C@](C)(CO[Si](C)(C)C(C)(C)C)[C@H](OC(C)=O)CC[C@@]4(C)[C@@H]2C[C@@H](C2=CCOC2=O)O3)cc1OC | 11.5 | 5.13 | 5.4 | 5.3 | 6.16 | 5.49
10 | CC(=O)O[C@@H]1CC[C@]2(C)[C@H](CC[C@]3(CNc4ccccc4F)O[C@H](C4=CCOC4=O)C[C@H]32)[C@]1(C)COC(c1ccccc1)(c1ccccc1)c1ccccc1 | > 50 | > 50 | > 50 | > 50 | > 50 | > 50
11 | CC(=O)O[C@@H]1CC[C@]2(C)[C@H](CC[C@]3(CNc4ccccc4)O[C@H](C4=CCOC4=O)C[C@H]32)[C@]1(C)CO[Si](C)(C)C(C)(C)C | 21.2 | 5.94 | 5.44 | 7.8 | 8.5 | 5.19
12 | CC(=O)OC[C@@]1(C)[C@H]2CC[C@]3(CNc4cccc(F)c4)O[C@H](C4=CCOC4=O)C[C@H]3[C@]2(C)CC[C@H]1OC(C)=O | 20.8 | 22.3 | 7.41 | 6.52 | 5.87 | 6.85
13 | CC(=O)O[C@@H]1CC[C@]2(C)[C@H](CC[C@]3(CNc4ccc(Br)cc4)O[C@H](C4=CCOC4=O)C[C@H]32)[C@]1(C)CO[Si](c1ccccc1)(c1ccccc1)C(C)(C)C | > 50 | > 50 | > 50 | 47.8 | > 50 | 48.3
14 | CC(=O)O[C@@H]1CC[C@]2(C)[C@H](CC[C@]3(CNc4cccc(F)c4)O[C@H](C4=CCOC4=O)C[C@H]32)[C@]1(C)CO[Si](C(C)C)(C(C)C)C(C)C | 32.9 | 6.91 | 12.7 | 24.5 | 30.1 | 7.95
15 | C=C1CC[C@@H]2[C@](C)(CO)[C@H](O)CC[C@@]2(C)[C@@H]1C/C=C1/C(=O)OC[C@H]1O [ANDROGRAPHOLIDE] | 27.4 | 16.2 | 15.4 | 27.9 | 9.34 | 2.25
16 | CC(=O)OC[C@@]1(C)[C@H]2CC[C@]3(CNc4ccccc4F)O[C@H](C4=CCOC4=O)C[C@H]3[C@]2(C)CC[C@H]1OC(C)=O | 26.5 | 27.8 | 11.8 | 8.45 | 6.5 | 7.5
17 | CC(=O)O[C@@H]1CC[C@]2(C)[C@H](CC[C@]3(CNc4ccc(Br)cc4)O[C@H](C4=CCOC4=O)C[C@H]32)[C@]1(C)COC(c1ccccc1)(c1ccccc1)c1ccccc1 | > 50 | > 50 | > 50 | > 50 | > 50 | > 50
18 | CC(=O)O[C@@H]1CC[C@]2(C)[C@H](CC[C@]3(CNc4cccc(F)c4)O[C@H](C4=CCOC4=O)C[C@H]32)[C@]1(C)CO[Si](C)(C)C(C)(C)C | 27.4 | 6.1 | 8.64 | 21.5 | 26.2 | 6.44
19 | CC(=O)O[C@@H]1CC[C@]2(C)[C@H](CC[C@]3(CNc4cccc(F)c4)O[C@H](C4=CCOC4=O)C[C@H]32)[C@]1(C)COC(c1ccccc1)(c1ccccc1)c1ccccc1 | > 50 | > 50 | > 50 | > 50 | > 50 | > 50
20 | CC(=O)OC[C@@]1(C)[C@H]2CC[C@]3(CNc4ccc(Br)cc4)O[C@H](C4=CCOC4=O)C[C@H]3[C@]2(C)CC[C@H]1OC(C)=O | 21.1 | 8.4 | 6.93 | 6.14 | 6.09 | 7.47
21 | CC(=O)OC[C@@]1(C)[C@H]2CC[C@]3(CNc4ccccc4)O[C@H](C4=CCOC4=O)C[C@H]3[C@]2(C)CC[C@H]1OC(C)=O | > 50 | > 50 | > 50 | > 50 | 25.7 | 40
22 | CC(=O)O[C@@H]1CC[C@]2(C)[C@H](CC[C@]3(CNc4ccccc4)O[C@H](C4=CCOC4=O)C[C@H]32)[C@]1(C)CO[Si](C(C)C)(C(C)C)C(C)C | 18.8 | 6.1 | 8.33 | 9.43 | 17.5 | 6.54
23 | CC(=O)O[C@@H]1CC[C@]2(C)[C@H](CC[C@]3(CNc4ccccc4F)O[C@H](C4=CCOC4=O)C[C@H]32)[C@]1(C)CO[Si](C(C)C)(C(C)C)C(C)C | 30.8 | 8.05 | 15.3 | 21 | 30.2 | 21.4
24 | CC(=O)O[C@@H]1CC[C@]2(C)[C@H](CC[C@]3(CNc4cccc(F)c4)O[C@H](C4=CCOC4=O)C[C@H]32)[C@]1(C)CO[Si](c1ccccc1)(c1ccccc1)C(C)(C)C | > 50 | 44.8 | > 50 | > 50 | > 50 | > 50
25 | COc1ccc(NC[C@]23CC[C@@H]4[C@](C)(COC(c5ccccc5)(c5ccccc5)c5ccccc5)[C@H](OC(C)=O)CC[C@@]4(C)[C@@H]2C[C@@H](C2=CCOC2=O)O3)cc1OC | > 50 | 6.51 | 23.1 | > 50 | > 50 | 30.5
26 | CC(=O)O[C@@H]1CC[C@]2(C)[C@H](CC[C@]3(CNc4ccccc4F)O[C@H](C4=CCOC4=O)C[C@H]32)[C@]1(C)CO[Si](c1ccccc1)(c1ccccc1)C(C)(C)C | > 50 | 39.7 | > 50 | > 50 | > 50 | > 50
27 | CC(=O)O[C@@H]1CC[C@]2(C)[C@H](CC[C@]3(CNc4ccccc4F)O[C@H](C4=CCOC4=O)C[C@H]32)[C@]1(C)CO[Si](C)(C)C(C)(C)C | 6.49 | 3.33 | 4.45 | 6.1 | 5.59 | 4.56
